Results published in article PMC6454048, “Identification of Cbp1, a c-di-GMP Binding Chemoreceptor in Azorhizobium caulinodans ORS571 Involved in Chemotaxis and Nodulation of the Host Plant” (Frontiers in Microbiology, 2019).

Biological target: T1, Cbp1 (c-di-GMP binding protein 1; PilZ domain containing chemoreceptor) (Azorhizobium caulinodans, UniProt A8II15)
T1 construct: gene AZC_3349; Cbp1 ORF with C-terminal 6×His tag, expressed in E. coli Top10
Experiment: ITC ([…] protein titrated with […] c-di-GMP); also protein thermal shift assay

T1 sequence (A8II15 1-581): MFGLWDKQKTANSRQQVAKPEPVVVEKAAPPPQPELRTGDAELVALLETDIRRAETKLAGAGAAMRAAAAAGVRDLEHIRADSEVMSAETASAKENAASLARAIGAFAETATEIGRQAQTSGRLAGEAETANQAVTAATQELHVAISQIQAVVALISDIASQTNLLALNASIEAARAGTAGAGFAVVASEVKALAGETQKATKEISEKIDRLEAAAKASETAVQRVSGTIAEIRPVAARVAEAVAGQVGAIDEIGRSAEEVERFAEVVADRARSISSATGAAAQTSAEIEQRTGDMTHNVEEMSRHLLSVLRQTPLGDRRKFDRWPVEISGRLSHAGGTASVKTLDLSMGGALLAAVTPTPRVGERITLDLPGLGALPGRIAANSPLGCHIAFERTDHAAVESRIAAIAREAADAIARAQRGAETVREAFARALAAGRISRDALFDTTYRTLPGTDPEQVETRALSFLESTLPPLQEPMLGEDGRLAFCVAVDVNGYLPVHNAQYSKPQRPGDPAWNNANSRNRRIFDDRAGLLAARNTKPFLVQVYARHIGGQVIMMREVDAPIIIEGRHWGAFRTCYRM

Question: Which Kd does the source give for Nc1nc2c(ncn2[C@@H]2O[C@@H]3CO[P@](=O)(O)O[C@H]4[C@@H](O)[C@H](n5cnc6c(=O)[nH]c(N)nc65)O[C@@H]4CO[P@](=O)(O)O[C@H]3[C@H]2O)c(=O)[nH]1 [c-di-GMP] here?
Answer: Its Kd is 14.9 ± 1.6 µM.
